Legend:
Human eosinophils = test: Eosinophil degranulation measured by EDN release (RIA); assay type: cell-based
Protocol: The ability to induce eosinophilic degranulation was measured by EDN release. Human eosinophils were isolated from normal volunteers and volunteers reporting past allergies, hay fever, and/or asthma by Percoll density gradient centrifugation and magnetic cell sorting using MACS anti-CD16 microbeads as described by Hansel et al. (1991, J. Immunol. Methods, 145:105). Briefly, after peripheral blood was overlaid on an isotonic Percoll solution (1.084 g/ml; Sigma), the blood was centrifuged at 1000×g for 30 minutes at 4° C. Mononuclear cells at the interface were removed, and erythrocytes in the sediment were lysed by two cycles of hypotonic water lysis. Isolated granulocytes were washed twice with PIPES buffer (25 mM PIPES, 50 mM NaCl, 5 mM KCl, 25 mM NaOH, 5.4 mM glucose, pH 7.4) containing 1% bovine calf serum (Hyclone Laboratories; Logan, Utah). Cells were then incubated with an equal volume of anti-CD16-conjugated magnetic beads (Miltenyi Biotec, Auburn, Calif.) for 30 minutes at 4° C. with occasional gentle mixing. After 30 minutes of incubation on ice, cells were loaded onto a separation column positioned in the strong magnetic field of the MACS. Cells were eluted three times with 5 mL of PIPES buffer containing 1% bovine calf serum. The purity of eosinophils, as counted by Randolph's stain, was regularly >98%. Purified eosinophils were used immediately for experiments.
To monitor eosinophil degranulation, 200 μL of freshly isolated eosinophils were resuspended in HBSS with 25 mM HEPES and 0.01% gelatin at 5×10^5 cells/mL and incubated with the a particular fungal extract. […] To quantitate eosinophil degranulation, the concentration of one of the eosinophil granule proteins in the sample supernatants, EDN, was measured by specific RIA, as described previously (Horie & Kita, 1994, J. Immunol., 152:5457). […] Total cellular EDN was measured in parallel supernatants from cells lysed with Nonidet P-40 detergent (Sigma Chemical Co.). […]

eosinophils = test: Intracellular calcium [Ca^2+]i in eosinophils (indo-1, flow cytometer); assay type: cell-based, human; settings: 100 μg/mL extract or 10 ng/mL IL-5, 37° C.
Protocol: Real time changes in cytosolic free Ca^2+ (intracellular Ca^2+ concentration ([Ca^2+]i)) were measured in a flow cytometer using the fluorescent calcium indicator indo-1 (Rabinovitch et al., 1986, J. Immunol., 137:952; Grynkiewicz et al., 1985, J. Biol Chem., 260:3440). Indicator was introduced into cells by incubating 1 mL of eosinophils at a concentration of 1 to 2×10^6 cells/mL with 3 μM indo-1/AM (Molecular Probes, Eugene, Oreg.) in phenol red-free RPMI 1640 medium supplemented with 10% alpha calf serum and 10 mM HEPES for 30 minutes at 37° C. After washing, cells were suspended in RPMI with 0.1% HSA and 10 mM HEPES at 1×10^6 cells/mL. To measure [Ca^2+]i, cells were stimulated with 100 μg/mL Alternaria culture extract or 10 ng/mL IL-5, and fluorescence was analyzed by a FACS analyzer equipped with an ion-argon laser (Becton Dickinson). [Ca^2+]i was monitored on the basis of the ratio of the fluorescence of the calcium-bound indo-1 emission (401 nm) and the free indo-1 emission (475 nm). In addition, the [Ca^2+] in the medium can be manipulated to determine the effect on [Ca^2+]i.

[1] = test system: Human peripheral blood eosinophils; test: IL-8 production by eosinophils (ELISA); assay type: cell-based; settings: 0.01 μg/mL, 24 hours
Protocol: Human peripheral blood eosinophils can produce and release proinflammtory cytokines including IL-8. Eosinophils were incubated with 50 μg/mL or 100 μg/mL of Alternaria, or with 0.01 μg/mL IL-5, and the amount of IL-8 was measured. Purified eosinophils (1 mL at 1×10^6 cells/mL) were cultured in RPMI 1640 medium supplemented with 10% BCS in the presence of Alternaria or IL-5 using 48-well tissue culture plates (Costar, Cambridge, Mass.). After incubating the eosinophils with Alternaria or IL-5 for 24 hours at 37° C. in an atmosphere of 5% CO2, cell free supernatants were collected and frozen at −20° C. The concentrations of IL-8 in the supernatants were measured using an ELISA kit (Quantikine IL-8 Immunoassay Kit, R&D Systems, Minneapolis, Minn.). The threshold sensitivity of the kit was 4 pg/mL.

IL-5: cytokine used as reference stimulus of eosinophil degranulation
EDN release (Human eosinophils; 10 ng/mL): 52.1±6.5 ng EDN/10^6 cells
EDN release, eosinophils from allergy patients versus normal individuals (Human eosinophils; 100 μg/mL Alternaria culture extracts or 10 ng/mL IL-5): no difference
EDN release at 4° C. (Human eosinophils; incubation at 4° C. for 3 hours): abrogated EDN release
change in [Ca^2+]i (eosinophils): no elevation of [Ca^2+]i
IL-8 production from eosinophils [1]: very little IL-8
